Entries after “also recorded” stand apart in the source; their conditions may differ. Like-named read-outs stand apart in the source and are kept apart here.
Legend:
[1] = test system: primary human renal mesangial cells (HRMCs); assay: ET-1 induced proliferation (BrdU) of primary human renal mesangial cells; type: cell-based; conditions: 10 ng/mL ET-1, read-out: IC50, ET-1 induced HRMC proliferation
g-ddY mice = assay: Albuminuria (UACR) in g-ddY mouse model of IgA nephropathy; type: in vivo
Description: The grouped ddY (g-ddY) mouse is a spontaneous model of early-onset IgA nephropathy characterized by IgA immune complex deposition in the mesangium of the kidney, leading to significant proteinuria, glomerular hypercellularity, mesangioproliferative glomerular lesions, glomerular sclerosis and reduced kidney function, all hallmarks of human IgA nephropathy (J Am Soc Nephrol 23: 1364-1374, 2012). Consistent with human IgA nephropathy, the mesangial IgA deposits in the g-ddY mouse are also accompanied by deposition of IgG and complement C3.

[2] = test system: upstream regulators in kidney tissue of g-ddY mice; assay: IPA upstream regulator analysis, g-ddY mouse kidney RNA-seq; type: in vivo; conditions: 30 mg/kg/day
[3] = 10 mg/kg/day, approximately 5 days

`CCCCN(CCCC)C(=O)CN1C[C@H](c2ccc3c(c2)OCO3)[C@@H](C(=O)O)[C@@H]1c1ccc(OC)cc1` [Atrasentan, (2R,3R,4S)-4-(1,3-benzodioxol-5-yl)-1-[2-(dibutylamino)-2-oxoethyl]-2-(4-methoxyphenyl)pyrrolidine-3-carboxylic acid] gave an IC50 ([1]; 48 hours) of 4.2 nM, an IC50 ([1]; Homo sapiens, Mesangial cell, 48 h) of roughly 5.1 nM and an IC50 ([1]; Homo sapiens, Mesangial cell, 72 h) of roughly 50.8 nM. The “mice with reduced albuminuria” value (g-ddY mice; 10 mg/kg/day group) was “⅔”, the “reduction of UACR from baseline” value (g-ddY mice; 10 mg/kg/day in drinking water, approximately 5 days) was 28±44% and the “albuminuria vs baseline (paired t-test)” value (g-ddY mice; [3]) was “not significantly changed from baseline”. For the same molecule, the “effect on UACR compared to control group (un-paired t-test)” value (“effect on UACR compared to control group” for short) (g-ddY mice; [3]) was “not significant”, the “reduction of UACR from baseline” value (g-ddY mice; 20 mg/kg/day in drinking water, approximately 5 days) was 62±8% and the “effect on UACR compared to control group” value (g-ddY mice; 20 mg/kg/day, approximately 5 days, P=0.0498) was “statistically significant compared to the control group; also recorded: significantly reduced albuminuria”. For the same molecule, the “albuminuria vs baseline (paired t-test)” value (g-ddY mice; 20 mg/kg/day, approximately 5 days, P=0.0593) was “reduced from baseline to a similar extent”, the “reduction of UACR from baseline” value (g-ddY mice; 30 mg/kg/day in drinking water, approximately 5 days) was 63±6% and the “albuminuria vs baseline (paired t-test)” value (g-ddY mice; 30 mg/kg/day, approximately 5 days) was “significantly (P=0.0002, paired two-sided t-test) reduced albuminuria from baseline”. For the same molecule, the “effect on UACR compared to control group” value (g-ddY mice; 30 mg/kg/day, approximately 5 days, P=0.029) was “statistically significant compared to the control group; also recorded: significantly reduced albuminuria”, the “magnitude of albuminuria lowering (reduction from baseline)” value (g-ddY mice; 20 and 30 mg/kg/day, approximately 5 days) was greater than 60% and the “26s Proteasome Activation z-score” value [2] was −2.122. For the same molecule, the “26s Proteasome Predicted Activation State” value [2] was “Inhibited”, the “ADGRF5 Activation z-score” value [2] was 2 and the “ADGRF5 Predicted Activation State” value [2] was “Activated”. The “AGT Activation z-score” value [2] was −4.741, the “AGT Predicted Activation State” value [2] was “Inhibited” and the “BMP2 Activation z-score” value [2] was −2.435. The “BMP2 Predicted Activation State” value [2] was “Inhibited”, the “CCL5 Activation z-score” value [2] was −2.268 and the “CCL5 Predicted Activation State” value [2] was “Inhibited”. For the same molecule, the “CCN5 Activation z-score” value [2] was 2.45, the “CCN5 Predicted Activation State” value [2] was “Activated” and the “CCR2 Activation z-score” value [2] was −3.791. For the same molecule, the “CCR2 Predicted Activation State” value [2] was “Inhibited”, the “CD40LG Activation z-score” value [2] was −3.607 and the “CD40LG Predicted Activation State” value [2] was “Inhibited”. The “CG Activation z-score” value [2] was −4.34, the “CG Predicted Activation State” value [2] was “Inhibited” and the “CHRM3 Activation z-score” value [2] was −2.425. The “CHRM3 Predicted Activation State” value [2] was “Inhibited”, the “CSF2 Activation z-score” value [2] was −5.645 and the “CSF2 Predicted Activation State” value [2] was “Inhibited”. The “CSF3 Activation z-score” value [2] was −3.116, the “CSF3 Predicted Activation State” value [2] was “Inhibited” and the “CXCL12 Activation z-score” value [2] was −2.851. The “CXCL12 Predicted Activation State” value [2] was “Inhibited”, the “DKK1 Activation z-score” value [2] was 2.113 and the “DKK1 Predicted Activation State” value [2] was “Activated”. For the same molecule, the “EDN1 Activation z-score” value [2] was −4.26, the “EDN1 Predicted Activation State” value [2] was “Inhibited” and the “EDNRA Activation z-score” value [2] was −2.449. For the same molecule, the “EDNRA Predicted Activation State” value [2] was “Inhibited”, the “EGF Activation z-score” value [2] was −3.649 and the “EGF Predicted Activation State” value [2] was “Inhibited”. For the same molecule, the “F2R Activation z-score” value [2] was −3.04, the “F2R Predicted Activation State” value [2] was “Inhibited” and the “F3 Activation z-score” value [2] was −3.862. The “F3 Predicted Activation State” value [2] was “Inhibited”, the “FAS Activation z-score” value [2] was 2.887 and the “FAS Predicted Activation State” value [2] was “Activated”. For the same molecule, the “FCGR1A Activation z-score” value [2] was −2.201, the “FCGR1A Predicted Activation State” value [2] was “Inhibited” and the “FGF2 Activation z-score” value [2] was −4.33. For the same molecule, the “FGF2 Predicted Activation State” value [2] was “Inhibited”, the “FGF23 Activation z-score” value [2] was −2.497 and the “FGF23 Predicted Activation State” value [2] was “Inhibited”. The “GDF2 Activation z-score” value [2] was −2.055, the “GDF2 Predicted Activation State” value [2] was “Inhibited” and the “GPER1 Activation z-score” value [2] was −3.527. For the same molecule, the “GPER1 Predicted Activation State” value [2] was “Inhibited”, the “HGF Activation z-score” value [2] was −5.138 and the “HGF Predicted Activation State” value [2] was “Inhibited”. For the same molecule, the “HTR7 Activation z-score” value [2] was −2.219, the “HTR7 Predicted Activation State” value [2] was “Inhibited” and the “IFNA2 Activation z-score” value [2] was −3.465. The “IFNA2 Predicted Activation State” value [2] was “Inhibited”, the “IFNAR1 Activation z-score” value [2] was −3.094 and the “IFNAR1 Predicted Activation State” value [2] was “Inhibited”. The “IFNG Activation z-score” value [2] was −4.604, the “IFNG Predicted Activation State” value [2] was “Inhibited” and the “IGF1 Activation z-score” value [2] was −2.676. For the same molecule, the “IGF1 Predicted Activation State” value [2] was “Inhibited”, the “IGF1R Activation z-score” value [2] was 2.165 and the “IGF1R Predicted Activation State” value [2] was “Activated”. The “IL1A Activation z-score” value [2] was −4.942, the “IL1A Predicted Activation State” value [2] was “Inhibited” and the “IL1B Activation z-score” value [2] was −7.154. The “IL1B Predicted Activation State” value [2] was “Inhibited”, the “IL2 Activation z-score” value [2] was −4.023 and the “IL2 Predicted Activation State” value [2] was “Inhibited”. The “IL3 Activation z-score” value [2] was −3.894, the “IL3 Predicted Activation State” value [2] was “Inhibited” and the “IL6 Activation z-score” value [2] was −3.872. For the same molecule, the “IL6 Predicted Activation State” value [2] was “Inhibited”, the “IL6R Activation z-score” value [2] was −2.179 and the “IL6R Predicted Activation State” value [2] was “Inhibited”. For the same molecule, the “IL10 Activation z-score” value [2] was −2.775, the “IL10 Predicted Activation State” value [2] was “Inhibited” and the “IL21 Activation z-score” value [2] was −2.886. The “IL21 Predicted Activation State” value [2] was “Inhibited”, the “IL33 Activation z-score” value [2] was −3.781 and the “IL33 Predicted Activation State” value [2] was “Inhibited”. For the same molecule, the “Ifn gamma Activation z-score” value [2] was −3.354, the “Ifn gamma Predicted Activation State” value [2] was “Inhibited” and the “Ige Activation z-score” value [2] was −4.883. The “Ige Predicted Activation State” value [2] was “Inhibited”, the “LDL Activation z-score” value [2] was −3.568 and the “LDL Predicted Activation State” value [2] was “Inhibited”. For the same molecule, the “LGR5 Activation z-score” value [2] was 2.137, the “LGR5 Predicted Activation State” value [2] was “Activated” and the “Laminin (complex) Activation z-score” value [2] was 2.043. The “Laminin (complex) Predicted Activation State” value [2] was “Activated”, the “NFkB (complex) Activation z-score” value [2] was −5.503 and the “NFkB (complex) Predicted Activation State” value [2] was “Inhibited”. The “NRG1 Activation z-score” value [2] was −3.478, the “NRG1 Predicted Activation State” value [2] was “Inhibited” and the “OSM Activation z-score” value [2] was −5.912. For the same molecule, the “OSM Predicted Activation State” value [2] was “Inhibited”, the “PDGF BB Activation z-score” value [2] was −3.976 and the “PDGF BB Predicted Activation State” value [2] was “Inhibited”. For the same molecule, the “PDGFB Activation z-score” value [2] was −2.622, the “PDGFB Predicted Activation State” value [2] was “Inhibited” and the “PF4 Activation z-score” value [2] was −2.219. The “PF4 Predicted Activation State” value [2] was “Inhibited”, the “PI3K (complex) Activation z-score” value [2] was −3.293 and the “PI3K (complex) Predicted Activation State” value [2] was “Inhibited”. The “PLA2R1 Activation z-score” value [2] was 2.917, the “PLA2R1 Predicted Activation State” value [2] was “Activated” and the “PRL Activation z-score” value [2] was −3.529. The “PRL Predicted Activation State” value [2] was “Inhibited”, the “PROKR1 Activation z-score” value [2] was 2 and the “PROKR1 Predicted Activation State” value [2] was “Activated”. The “PTGER4 Activation z-score” value [2] was 2.017, the “PTGER4 Predicted Activation State” value [2] was “Activated” and the “Pdgf (complex) Activation z-score” value [2] was −2.779. The “Pdgf (complex) Predicted Activation State” value [2] was “Inhibited”, the “SMO Activation z-score” value [2] was 2.621 and the “SMO Predicted Activation State” value [2] was “Activated”. The “TCR Activation z-score” value [2] was −2.362, the “TCR Predicted Activation State” value [2] was “Inhibited” and the “TGFB1 Activation z-score” value [2] was −5.163. For the same molecule, the “TGFB1 Predicted Activation State” value [2] was “Inhibited”, the “TGFB2 Activation z-score” value [2] was −2.631 and the “TGFB2 Predicted Activation State” value [2] was “Inhibited”. The “TGFB3 Activation z-score” value [2] was −2.663, the “TGFB3 Predicted Activation State” value [2] was “Inhibited” and the “TLR3 Activation z-score” value [2] was −5.02. For the same molecule, the “TLR3 Predicted Activation State” value [2] was “Inhibited”, the “TLR4 Activation z-score” value [2] was −4.561 and the “TLR4 Predicted Activation State” value [2] was “Inhibited”. The “TLR9 Activation z-score” value [2] was −4.894, the “TLR9 Predicted Activation State” value [2] was “Inhibited” and the “TNF Activation z-score” value [2] was −6.593. The “TNF Predicted Activation State” value [2] was “Inhibited”, the “TNFRSF1A Activation z-score” value [2] was −2.449 and the “TNFRSF1A Predicted Activation State” value [2] was “Inhibited”. For the same molecule, the “TNFSF11 Activation z-score” value [2] was −2.519, the “TNFSF11 Predicted Activation State” value [2] was “Inhibited” and the “TNFSF12 Activation z-score” value [2] was −3.271. The “TNFSF12 Predicted Activation State” value [2] was “Inhibited”, the “TREM1 Activation z-score” value [2] was −3.62 and the “TREM1 Predicted Activation State” value [2] was “Inhibited”. The “TSLP Activation z-score” value [2] was −2.533, the “TSLP Predicted Activation State” value [2] was “Inhibited” and the “TYROBP Activation z-score” value [2] was −2.376. For the same molecule, the “TYROBP Predicted Activation State” value [2] was “Inhibited”, the “VEGFA Activation z-score” value [2] was −2.501 and the “VEGFA Predicted Activation State” value [2] was “Inhibited”. For the same molecule, the “VEGFB Activation z-score” value [2] was 3.128, the “VEGFB Predicted Activation State” value [2] was “Activated” and the “WNT3A Activation z-score” value [2] was −3.711. The “WNT3A Predicted Activation State” value [2] was “Inhibited”.
